We go through 32 compounds from ChEMBL document CHEMBL1697731, “Cheminformatics analysis of assertions mined from literature that describe drug-induced liver injury in different species” (Chem Res Toxicol, 2010).

For data set [1], the system named is Hepatotoxicity. The data set is described as follows: Literature-mined compound from Fourches et al multi-species drug-induced liver injury (DILI) dataset, effect in non-rodents.
The subject of data set [2] is Hepatotoxicity. In words: Literature-mined compound from Fourches et al multi-species drug-induced liver injury (DILI) dataset, effect in humans. Particulars: human.
Data set [3] has as its system Hepatotoxicity. In words: Literature-mined compound from Fourches et al multi-species drug-induced liver injury (DILI) dataset, effect in rodents. Particulars: rodentia.

SMILES strings stand for the structures.

Consider `C[C@]12CC[C@@H]3c4ccc(OC(=O)N(CCCl)CCCl)cc4CC[C@H]3[C@@H]1CC[C@@H]2O` [ESTRAMUSTINE], for which the Hepatotoxicity entry in data set [1] was “no drug-induced liver injury reported”; in data set [2], “drug-induced liver injury reported”; in data set [3], “no drug-induced liver injury reported”.
As for `C[C@]12CC[C@@H]3c4ccc(O)cc4CC[C@H]3[C@@H]1C[C@@H](O)[C@@H]2O` [ESTRIOL], the Hepatotoxicity result in data set [1] is recorded as “no drug-induced liver injury reported”; in data set [2], “no drug-induced liver injury reported”; in data set [3], “drug-induced liver injury reported”.
With `C[C@]12CC[C@@H]3c4ccc(OS(=O)(=O)O)cc4CC[C@H]3[C@@H]1CCC2=O` [ESTRONE SULFURIC ACID], the results for the Hepatotoxicity entry in data set [1], in data set [2] and in data set [3] were “no drug-induced liver injury reported”, “no drug-induced liver injury reported” and “drug-induced liver injury reported”, respectively.
Turning to `C[C@]12CC[C@@H]3c4ccc(O)cc4CC[C@H]3[C@@H]1CCC2=O` [ESTRONE], the Hepatotoxicity result in data set [1] is listed as “no drug-induced liver injury reported”; in data set [2], “drug-induced liver injury reported”; in data set [3], “drug-induced liver injury reported”.
As for `C=C(CC)C(=O)c1ccc(OCC(=O)O)c(Cl)c1Cl` [ETHACRYNIC ACID], the Hepatotoxicity result in data set [1] is “drug-induced liver injury reported”; in data set [2], “no drug-induced liver injury reported”; in data set [3], “drug-induced liver injury reported”.
As for `C#C[C@]1(O)CC[C@H]2[C@@H]3CCc4cc(O)ccc4[C@H]3CC[C@@]21C` [ETHINYL ESTRADIOL], the Hepatotoxicity result in data set [1], in data set [2] and in data set [3] was “drug-induced liver injury reported” each time.
With `CCc1cc(C(N)=S)ccn1` [ETHIONAMIDE], the Hepatotoxicity result in data set [1] (Liver) is given as “no drug-induced liver injury reported”; in data set [2] (Liver), “drug-induced liver injury reported”; in data set [3] (Liver), “drug-induced liver injury reported”.
For `CCOc1ccc2nc(S(N)(=O)=O)sc2c1` [ETHOXZOLAMIDE], the Hepatotoxicity entry in data set [1] is given as “no drug-induced liver injury reported”; in data set [2] it was “no drug-induced liver injury reported”; in data set [3], “drug-induced liver injury reported”.
Take `CCc1cccc2c3c([nH]c12)C(CC)(CC(=O)O)OCC3` (stereo unspecified) [ETODOLAC]: the Hepatotoxicity entry was “no drug-induced liver injury reported” in data set [1], “drug-induced liver injury reported” in data set [2] and “drug-induced liver injury reported” in data set [3].
Turning to `CCOC(=O)c1cncn1[C@H](C)c1ccccc1` [ETOMIDATE], the Hepatotoxicity entry in data set [1] is on record as “no drug-induced liver injury reported”; in data set [2], “drug-induced liver injury reported”; in data set [3], “drug-induced liver injury reported”.
For `CCOC(=O)[C@@]1(CCCCCCOc2ccc(Cl)cc2)CO1` [ETOMOXIR], the Hepatotoxicity entry in data set [1], in data set [2] and in data set [3] was “drug-induced liver injury reported” throughout.
Consider `COc1cc([C@@H]2c3cc4c(cc3[C@@H](O[C@@H]3O[C@@H]5CO[C@@H](C)O[C@H]5[C@H](O)[C@H]3O)[C@H]3COC(=O)[C@H]23)OCO4)cc(OC)c1O` [ETOPOSIDE], for which the Hepatotoxicity result in data set [1] (Liver) is “no drug-induced liver injury reported”; in data set [2] (Liver), “drug-induced liver injury reported”; in data set [3] (Liver), “drug-induced liver injury reported”.
For `CCOC(=O)/C=C(C)/C=C/C=C(C)/C=C/c1c(C)cc(OC)c(C)c1C` [ETRETINATE], the results for the Hepatotoxicity result in data set [1], in data set [2] and in data set [3] were “no drug-induced liver injury reported”, “drug-induced liver injury reported” and “no drug-induced liver injury reported”, respectively.
On to `Cc1cc(-c2ccc(/N=N/c3ccc4c(S(=O)(=O)[O-])cc(S(=O)(=O)[O-])c(N)c4c3O)c(C)c2)ccc1/N=N/c1ccc2c(S(=O)(=O)[O-])cc(S(=O)(=O)[O-])c(N)c2c1O.[Na+].[Na+].[Na+].[Na+]` [EVANS BLUE], for which the Hepatotoxicity entry in data set [1] is listed as “no drug-induced liver injury reported”; in data set [2] it was “no drug-induced liver injury reported”; in data set [3], “drug-induced liver injury reported”.
Regarding `CC1=C(CC(=O)O)c2cc(F)ccc2/C1=C\c1ccc(S(C)(=O)=O)cc1` [EXISULIND], the Hepatotoxicity entry is reported as “no drug-induced liver injury reported” in data set [1], “drug-induced liver injury reported” in data set [2] and “no drug-induced liver injury reported” in data set [3].
On to `O=C1[C@H](CC[C@H](O)c2ccc(F)cc2)[C@@H](c2ccc(O)cc2)N1c1ccc(F)cc1` [EZETIMIBE], for which the Hepatotoxicity result in data set [1], in data set [2] and in data set [3] was “drug-induced liver injury reported” each time.
As for `CC(=O)OCC(CCn1cnc2cnc(N)nc21)COC(C)=O` [FAMCICLOVIR], the Hepatotoxicity result in data set [1] was “no drug-induced liver injury reported”; in data set [2] it was “drug-induced liver injury reported”; in data set [3] it was “no drug-induced liver injury reported”.
With `NC(N)=Nc1nc(CSCCC(N)=NS(N)(=O)=O)cs1` [FAMOTIDINE], the Hepatotoxicity entry in data set [1] (Liver) is on record as “no drug-induced liver injury reported”; in data set [2] (Liver), “drug-induced liver injury reported”; in data set [3] (Liver) it was “drug-induced liver injury reported”.
On to `COc1ccc2cc1Oc1ccc(cc1)C[C@H]1c3cc(c(OC)cc3CCN1C)Oc1c(OC)c(OC)cc3c1[C@H](C2)N(C)CC3` [FANCHININ], for which the Hepatotoxicity entry in data set [1] is “no drug-induced liver injury reported”; in data set [2], “drug-induced liver injury reported”; in data set [3], “drug-induced liver injury reported”.
As for `O=S(=O)(c1cccc2cnccc12)N1CCCNCC1` [FASUDIL], the results for the Hepatotoxicity entry in data set [1], in data set [2] and in data set [3] were “no drug-induced liver injury reported”, “drug-induced liver injury reported” and “drug-induced liver injury reported”, respectively.
Consider `NC(=O)OCC(COC(N)=O)c1ccccc1` [FELBAMATE], for which the Hepatotoxicity result in data set [1] is “no drug-induced liver injury reported”; in data set [2], “drug-induced liver injury reported”; in data set [3], “drug-induced liver injury reported”.
Regarding `CCOC(=O)C1=C(C)NC(C)=C(C(=O)OC)C1c1cccc(Cl)c1Cl` (stereo unspecified) [FELODIPINE], the Hepatotoxicity result was “no drug-induced liver injury reported” in data set [1], “drug-induced liver injury reported” in data set [2] and “no drug-induced liver injury reported” in data set [3].
Turning to `NCCCC[C@H](NC(=O)[C@@H]1CCCN1C(=O)[C@@H]1CSSC[C@H](N)C(=O)N[C@@H](Cc2ccccc2)C(=O)N[C@@H](Cc2ccccc2)C(=O)N[C@@H](CCC(N)=O)C(=O)N[C@@H](CC(N)=O)C(=O)N1)C(=O)NCC(N)=O` [FELYPRESSIN], the Hepatotoxicity result in data set [1] is reported as “drug-induced liver injury reported”; in data set [2], “no drug-induced liver injury reported”; in data set [3] it was “no drug-induced liver injury reported”.
As for `CC(C)OC(=O)C(C)(C)Oc1ccc(C(=O)c2ccc(Cl)cc2)cc1` [FENOFIBRATE], the Hepatotoxicity entry was “no drug-induced liver injury reported” in data set [1], “drug-induced liver injury reported” in data set [2] and “drug-induced liver injury reported” in data set [3].
As to `CC1=C(/C=C/C(C)=C/C=C/C(C)=C/C(=O)Nc2ccc(O)cc2)C(C)(C)CCC1` [FENRETINIDE], the Hepatotoxicity result is given as “no drug-induced liver injury reported” in data set [1], “drug-induced liver injury reported” in data set [2] and “drug-induced liver injury reported” in data set [3].
As for `CCCCCCCCc1ccc(CCC(N)(CO)CO)cc1` [FINGOLIMOD], the values for the Hepatotoxicity result in data set [1], in data set [2] and in data set [3] were “no drug-induced liver injury reported”, “drug-induced liver injury reported” and “drug-induced liver injury reported”, respectively.
Regarding `O=C(NCC1CCCCN1)c1cc(OCC(F)(F)F)ccc1OCC(F)(F)F` (stereo unspecified) [FLECAINIDE], the Hepatotoxicity result in data set [1] was “no drug-induced liver injury reported”; in data set [2] it was “drug-induced liver injury reported”; in data set [3], “no drug-induced liver injury reported”.
`Cn1cc([S+](C)[O-])c(=O)c2ccc(F)cc21` (stereo unspecified) [FLOSEQUINAN]: the Hepatotoxicity result in data set [1] is “no drug-induced liver injury reported”; in data set [2] it was “drug-induced liver injury reported”; in data set [3] it was “no drug-induced liver injury reported”.
Turning to `Cc1onc(-c2c(F)cccc2Cl)c1C(=O)N[C@@H]1C(=O)N2[C@@H]1SC(C)(C)[C@@H]2C(=O)O` [FLOXACILLIN], the Hepatotoxicity result in data set [1] is reported as “no drug-induced liver injury reported”; in data set [2], “drug-induced liver injury reported”; in data set [3], “drug-induced liver injury reported”.
Consider `O=c1[nH]c(=O)n([C@H]2C[C@H](O)[C@@H](CO)O2)cc1F` [FLOXURIDINE], for which the Hepatotoxicity entry in data set [1] was “no drug-induced liver injury reported”; in data set [2], “drug-induced liver injury reported”; in data set [3] it was “drug-induced liver injury reported”.
For `OC(Cn1cncn1)(Cn1cncn1)c1ccc(F)cc1F` [FLUCONAZOLE], the Hepatotoxicity result in data set [1] (Liver) is “no drug-induced liver injury reported”; in data set [2] (Liver), “drug-induced liver injury reported”; in data set [3] (Liver), “drug-induced liver injury reported”.
With `Nc1nc(=O)[nH]cc1F` [FLUCYTOSINE], the values for the Hepatotoxicity result in data set [1], in data set [2] and in data set [3] were “no drug-induced liver injury reported”, “no drug-induced liver injury reported” and “drug-induced liver injury reported”, respectively.
